Measured values taken from US20040253252A1, “Biological compositions and methods for treatment of leukemia” (priority 2003, published 2004).
Read-outs that look alike come from different tables or passages of the source.

Tests used:
Format in all cases: in vivo, mouse
leukemia cell line L6565 [1] = conditions: SWI mice
Protocol: (§1) The biological composition comprising 10^8 cells per ml of activated and conditioned yeast cells of the strain Saccharomyces cerevisiae Hansen strain AS2.11 was prepared by the methods described in Section 5.1 and subsections therein.
(§2) The mice injected with tumor cells were immediately divided into 4 experimental groups of ten mice per group and one control group. The four experimental groups were triplicated (i.e., using a total of 120 mice in the experimental groups).
(§3) The mice in group CK2 also started receiving saline on the same day as the other four groups. […] The number of tumor cells in the mice were determined by standard techniques.

leukemia cell line T739 [2] = conditions: T739 mice
Protocol: as §1, §2, §3

leukemia cell line L6565 [3] = conditions: SWI mice; for Number of live animals remaining in the group: 30 mice per group
Protocol: The survival time of mice after tumor injection and treatment was studied.
as §1
The animals were prepared in a similar manner as described in Section 6.1.
(§4) The mice injected with tumor cells were kept for 5 days and then were divided into 4 experimental groups of ten mice per group and one control group. The four experimental groups were triplicated (i.e., using a total of 120 mice in the experimental groups). In group 2AY, the mice received 0.3 ml of the biological composition once per day. In group 2NY, the mice received 0.3 ml of the untreated yeast cells once per day. […] In group 2CK1, the mice received 0.3 ml of physiological saline once per day.
(§5) The mice in group CK2 also started receiving saline on the same day as the other four groups. […] The mice were observed over 6 months from the day of tumor inoculation and survival was recorded. The number of tumor cells in the mice were determined by standard techniques.

leukemia cell line T739 [4] = conditions: T739 mice; for Number of live animals remaining in the group: 30 mice per group
Protocol: The survival time of the […] after tumor injection and treatment was studied.
as §1
The animals were prepared in a similar manner as described in Section 8.1.
as §4, with “immediately” for “kept for 5 days and then were”
as §5

[5] = 1 month after cessation of treatment
[6] = 2 months after cessation of treatment
[7] = 3 months after cessation of treatment
[8] = 4 months after cessation of treatment
[9] = 5 months after cessation of treatment
[10] = 6 months after cessation of treatment

Structure (SMILES): O=P1(N(CCCl)CCCl)NCCCO1 (centres unmarked) [CTX, cyclophosphamide]
- development of leukemia (leukemia cell line L6565 [1]; L6565, 21 days of treatment): developed leukemia
- number of leukemia cells and standard deviation (leukemia cell line L6565 [1]; L6565 cells s.c., 21 consecutive days of treatment, sacrificed on 22nd day (or measured at time of death)): 933 ± 241 cells/ml
- number of leukemia cells and standard deviation (leukemia cell line T739 [2]; T739 cells s.c., 21 consecutive days of treatment, sacrificed on 22nd day (or measured at time of death)): 957 ± 132 cells/ml
- development of leukemia (leukemia cell line T739 [2]; 21 days of treatment): developed leukemia
- Number of live animals remaining in the group (leukemia cell line L6565 [3]; 0 month after cessation of 21 days of treatment): 28
- Number of live animals remaining in the group (leukemia cell line L6565 [3]; [5]): 19
- Number of live animals remaining in the group (leukemia cell line L6565 [3]; [6]): 3
- Number of live animals remaining in the group (leukemia cell line L6565 [3]; [7]): 0
- Number of live animals remaining in the group (leukemia cell line L6565 [3]; [8]): 0
- Number of live animals remaining in the group (leukemia cell line L6565 [3]; [9]): 0
- Number of live animals remaining in the group (leukemia cell line L6565 [3]; [10]): 0
- survival outcome during the experiment (leukemia cell line L6565 [3]; observed over 6 months): died during the experiment
- Number of live animals remaining in the group (leukemia cell line T739 [4]; 0 month after cessation of treatment): 28
- Number of live animals remaining in the group (leukemia cell line T739 [4]; [5]): 19
- Number of live animals remaining in the group (leukemia cell line T739 [4]; [6]): 3
- Number of live animals remaining in the group (leukemia cell line T739 [4]; [7]): 0
- Number of live animals remaining in the group (leukemia cell line T739 [4]; [8]): 0
- Number of live animals remaining in the group (leukemia cell line T739 [4]; [9]): 0
- Number of live animals remaining in the group (leukemia cell line T739 [4]; [10]): 0
- survival outcome during the experiment (leukemia cell line T739 [4]; observed over 6 months): died during the experiment
